This assay has as its system sweat secretion. In words: Induced sweat rate profiles stimulated by cholinergic agonist hydrogels under iontophoresis, measured with a sweat rate sensor. It counts as in vivo, human. Particulars: iontophoresis 2 mA for 5 minutes. The method, then:
Bars represent values for response latency (time in seconds to onset of secretion from start of iontophoresis), response duration (total time in minutes of secretion above baseline, measurements stopped at 60 minutes), peak secretory rate in response to stimulation, time to reach peak secretory rate and time spent secreting at the peak rate. […] By modulating the formulation of the compounds that are loaded into the iontophoresis hydrogel, we can achieve different patterns of sweat secretion rate. We characterized the induced sweat rate profiles as stimulated by three different cholinergic agonist hydrogels (acetylcholine, methacholine and pilocarpine) each at two different concentrations. For this characterization step, 2 mA of current over duration of 5 minutes was applied using a pair of ring-shaped electrodes (WR Medical Electronics Co., MN, area: 4.3 cm2), with the sweat rate sensor (Q-sweat, WR Medical Electronics Co., MN) mounted on the positive electrode, sealing the stimulated area. […] This pattern is suitable for the case where periodic sweat sampling with short intervals is required. […] To retrieve the induced sweat rate information, immediately after each stimulation step, the stimulated area was wiped dry and sealed with the sweat rate sensor. After each characterization step, the same pair of hydrogels were reused for the subsequent stimulation. […]

As to `CC[C@@H]1C(=O)OC[C@@H]1Cc1cncn1C` [pilocarpine], the “share of the secretion period spent at about the peak rate” value is recorded as “about half”.

As to `CC(=O)OC(C)C[N+](C)(C)C` (centres unmarked) [methacholine], the “share of the secretion period spent at about the peak rate” value is recorded as “about half”.

The values are drawn from US20180070870A1, “Autonomous Sweat Extraction and Analysis Using a Fully-Integrated Wearable Platform” (The Board of Trustees of the Leland Stanford Junior …, priority 2016, published 2018).
